Reference: PMC12668310, “High‐Throughput Synthesis and Screening of a Cyanimide Library Identifies Selective Inhibitors of ISG15‐Specific Protease mUSP18” (Angewandte Chemie (International Ed. in English), 2025)

What was measured:
Flag-mUSP18 = biological target: T1, Flag-mUSP18 (Mus musculus, UniProt Q9WTV6); assay: Gel-based ABPP with Rho-mISG15ct-PA probe in HEK293T cells overexpressing Flag-mUSP18; assay type: cell-based, murine; settings: live HEK293T cells, Flag-mUSP18, 4 h treatment
T1 construct: expressed in transfected cells; host or cells: HEK293T
T1 sequence (Q9WTV6 1-368): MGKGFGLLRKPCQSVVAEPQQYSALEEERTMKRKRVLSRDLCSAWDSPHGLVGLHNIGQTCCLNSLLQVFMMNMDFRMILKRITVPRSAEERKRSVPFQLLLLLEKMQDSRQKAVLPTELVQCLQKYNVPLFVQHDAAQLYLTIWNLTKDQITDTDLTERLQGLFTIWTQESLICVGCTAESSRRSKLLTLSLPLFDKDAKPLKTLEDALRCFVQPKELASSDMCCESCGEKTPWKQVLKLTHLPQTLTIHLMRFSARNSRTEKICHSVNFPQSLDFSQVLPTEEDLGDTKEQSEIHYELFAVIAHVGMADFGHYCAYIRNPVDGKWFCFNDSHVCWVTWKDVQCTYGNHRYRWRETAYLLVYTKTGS
Protocol: To assess the cellular target engagement and cell permeability of these inhibitors, we performed activity‐based protein profiling. […] Following washing and cell lysis, cell extracts were incubated with a Rhodamine‐tagged murine ISG15 C‐terminal domain propargylamide activity‐based probe (Rho‐mISG15ct‐PA), which covalently labels the active site cysteine of active deISGylating enzymes.^[ [41] ^] The labelled enzymes were resolved by SDS‐PAGE and imaged by in‐gel fluorescence, where inhibition of USP18 is reflected by disappearance of the USP18‐probe‐labelled bands around 55 kDa (Figures 6a, S11A). All three inhibitors engaged with cellular mUSP18 in a dose‐dependent manner, with BB07CA902 and BB07CA28 showing efficient inhibition already at 1 µM concentration. […] The in‐cell selectivity of these inhibitors for USP18 over DUBs was confirmed in a similar ABPP experiment using a Rhodamine‐tagged ubiquitin propargylamide probe (Rho‐Ub‐PA),^[ [42] ^] which labels the active site cysteine of all active cysteine DUBs.
Figure 6 Inhibition of murine USP18 activity in living cells. a) Gel‐based ABPP potency assessment using a Rho‐mISG15ct‐PA probe in HEK293T cells overexpressing Flag‐mUSP18. At 24 h following transfection, cells were incubated with DMSO or increasing concentrations of indicated inhibitors for 4 h, lysed, and treated with Rho‐mISG15ct‐PA probe. Top panel: fluorescence scan. Middle panel: anti‐Flag western blot. Bottom panel: anti‐GAPDH western blot confirms equal loading. b) Accumulation of ISGylation in mouse IFN‐β‐stimulated EL4 cells. At 24 h following mouse IFN‐β treatment, cells were incubated with DMSO or increasing concentrations of indicated inhibitors for 4 h, lysed, and treated with Rho‐mISG15ct‐PA probe. […] Middle panel: fluorescence scan. […]
Samples were then diluted 3-fold with water and analyzed by mass spectrometry by injecting 2 μL into a Waters XEVO-G2 XS Q-TOF mass spectrometer equipped with an electrospray ion source in positive mode (capillary voltage 1.2 kV, desolvation gas flow 900 L/h, T = 60 °C) with a resolution of R = 26,000. […]

[1] = system: cellular ISGylation in EL4 cells; assay: ISGylation accumulation in mouse IFN-β-stimulated EL4 cells (anti-mISG15 western blot); assay type: cell-based; settings: 4 h treatment, anti-mISG15 blot
Protocol: Figure 6 Inhibition of murine USP18 activity in living cells. a) Gel‐based ABPP potency assessment using a Rho‐mISG15ct‐PA probe in HEK293T cells overexpressing Flag‐mUSP18. At 24 h following transfection, cells were incubated with DMSO or increasing concentrations of indicated inhibitors for 4 h, lysed, and treated with Rho‐mISG15ct‐PA probe. Top panel: fluorescence scan. Middle panel: anti‐Flag western blot. Bottom panel: anti‐GAPDH western blot confirms equal loading. b) Accumulation of ISGylation in mouse IFN‐β‐stimulated EL4 cells. At 24 h following mouse IFN‐β treatment, cells were incubated with DMSO or increasing concentrations of indicated inhibitors for 4 h, lysed, and treated with Rho‐mISG15ct‐PA probe. Top panel: anti‐mISG15 western blot. Middle panel: fluorescence scan. Bottom panel: anti‐β‐actin western blot confirms equal loading.
Ultimately, we were interested in whether USP18 inhibitor treatment could result in a relevant phenotype in cells. USP18 is the major deISGylase to remove ISG15 from target proteins, and genetic inactivation of USP18 isopeptidase activity leads to enhanced ISGylation in vivo and in cells.^[ [26] ^] We therefore examined whether the USP18 inhibitors enhance cellular ISGylation. Accordingly, EL4 cells were stimulated with IFN‐β to induce the ISG15 machinery, prior to treatment with the inhibitors. After cell lysis and SDS‐PAGE, ISGylated proteins were stained by immunoblotting with an ISG15 antibody (Figure 6b, top panel). […] To confirm inhibition of endogenous USP18 in these experiments, samples were post‐lysis treated with Rho‐mISG15ct‐PA probe.
Generation of ISGylation and in-cell inhibition assay
Mouse EL4 cells were stimulated with 300 U/mL mouse IFN-β. At 24 hours following stimulation, cells were incubated with indicated compounds at the indicated final concentrations at 37 °C for 4 hours, then washed twice with PBS and harvested for further […]
Activity-based probe labelling
The in-cell inhibition of DUBs and mUSP18 was assessed using activity-based probe labelling assays. In brief, cell pellets were resuspended in HR buffer (50 mM Tris-HCl, 5 mM MgCl 2, 250 mM sucrose, 2 mM TCEP and a Protease inhibitor tablet (Roche), pH 7.4), and lysed by sonication (Bioruptor, Diagenode, high intensity for 10 minutes with an ON/OFF cycle of 30 seconds) at 4°C. 40 μg clarified cell lysate was incubated with Rhodamine-mISG15ct-propargylamide probe[1] (final concentration 1 μM) or Rhodamine-Ubiquitin-propargylamide probe[13] (final concentration 1 μM) at 37 °C for 30 min. Reactions were stopped by the addition of LDS (lithium dodecyl sulfate) sample buffer (Invitrogen Life Technologies, Carlsbad, CA, USA) containing 2.5% β-mercaptoethanol, followed by boiling for 7 minutes.
SDS-PAGE, in-gel fluorescence scanning, and immunoblotting
Samples were resolved on precast Bis-Tris NuPAGE Gels (Invitrogen, including 4-12%, and 10% for different samples) using MOPS buffer (Invitrogen Life Technologies, Carlsbad, CA, USA). For fluorescence scan, labeled enzymes were visualized by in-gel fluorescence using a Typhoon FLA 9500 imaging system (GE Healthcare Life Sciences) (Rhodamine channel for probe, Cy5 channel for protein marker).
For immunoblotting, proteins were transferred to a nitrocellulose membrane (Protan BA85, 0.45 μm, GE Healthcare) at 300 mA for 3 hours. […]

mUSP18 [2] = biological target: T2, mUSP18 (Mus musculus, UniProt Q9WTV6); assay: High-throughput screening, ISG15ct-RhoMP, single dose 1.25 µM; assay type: biochemical, murine; settings: crude in-plate synthesized compound, 1.25 µM assuming full conversion; read-out: %inhibition mUSP18
T2 construct: (46-368); His-tag (N); made in house
T2 sequence (Q9WTV6 46-368): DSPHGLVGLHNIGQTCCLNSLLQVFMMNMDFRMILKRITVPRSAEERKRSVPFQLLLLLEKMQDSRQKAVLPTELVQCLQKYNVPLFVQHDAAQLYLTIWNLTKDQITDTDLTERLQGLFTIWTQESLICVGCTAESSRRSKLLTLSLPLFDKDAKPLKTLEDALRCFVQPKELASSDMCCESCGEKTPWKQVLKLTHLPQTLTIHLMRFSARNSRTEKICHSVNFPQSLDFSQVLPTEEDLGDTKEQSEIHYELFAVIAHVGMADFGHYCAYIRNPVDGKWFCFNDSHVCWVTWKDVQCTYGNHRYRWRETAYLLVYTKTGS

mUSP18 [3] = biological target: T2, mUSP18; assay: IC50 determination, fluorogenic ISG15CT-Rho-morpholine activity assay; assay type: biochemical, murine; settings: pure (re-synthesized) compound; mean ± SD n = 3
12 Ub(‐like) proteases = assay: High-throughput screening, whole panel of twelve enzymes; assay type: biochemical; settings: crude mixture, 1.25 µM; enzymes other than mUSP18
Protocol: Since the in‐plate synthesis was conducted in 1536‐well Echo plates, the compounds could readily be transferred from these plates into 1536‐well assay plates using acoustic liquid dispensing (Figure 2a) and subjected to HTS. We screened the whole 7536 compound library against a panel of twelve enzymes, including three DUBs from the UCH family, two DUBs from the OTU family, five DUBs from the USP family, plus ISG15 protease USP18, and SUMO protease SENP1. Each compound was tested at a single dose of 1.25 µM, assuming full conversion (10 mM in DMSO of the formed products) during the in‐plate synthesis, using the fluorogenic assay described above. […] The compounds are sorted by the amine building blocks (BB1‐16), and within each BB, sorted by carboxylic acid (CA1‐471), thereby providing a comprehensive and systematic overview of the overall inhibition by each BB and CA combination. Some interesting patterns can be obtained from this map. […] Indeed, BB10 is the privileged scaffold for UCHL1 as it originates from UCHL1 inhibitor 5 (Figure 1). […]
The percentage inhibition was calculated for each well using the […]
Where FIx is the fluorescence intensity of each well, FIpos is the average fluorescence intensity of the positive (NEM) control wells, and FIneg is the average fluorescence intensity of the negative (DMSO) control wells.

concentration at which inhibition of mUSP18 probe labelling is observed (Flag-mUSP18) [µM]	inhibition at 1.25 µM (mUSP18 [2]) [%]	IC50 (mUSP18 [3]) [nM]	inhibition of all other enzymes tested (12 Ub(‐like) proteases)	SMILES	effect on cellular ISGylation [1]
100	–	–	–	Cc1cc(C(=O)N[C@@H]2C[C@@H]3CN(C#N)C[C@@H]3C2)ccc1C(C)C [BB06CA902]	hardly affected ISGylation
–	75	240 ± 9.9	negligible inhibition	N#CN1C[C@H]2C[C@H](NC(=O)CCC3CCCCC3)C[C@H]2C1 [BB07CA48]	–
